# Measurements from patent US10928381B2, “In vitro methods of monitoring autophagy in a human cell using a photoconvertable fluorescent protein linked biomarker” (The Regents of the University of Michigan, priority 2018, dated 2021).
# “Also recorded” adds a separate entry of the source.
# Experiments:
# [1] = system: Dendra2-LC3 HEK cells; experiment: Native (green, GFP) Dendra2-LC3 intensity and puncta, phase I primary screen readout (T15/T0); type: cell-based, human; conditions: for GFP intensity of native Dendra2-LC3: vs DMSO
# Text: Conventional methods for estimating autophagy flux rely upon the assessment of LC3 or other autophagy substrates by Western blotting or immunocytochemistry (Ref. 27; herein incorporated by reference in its entirety); by their very nature, these techniques are static and limited to dead cells. Fluorescence-based methods that use tagged substrates allow visualization of autophagy within living cells, but typically require the overexpression of autophagy target proteins that may disrupt the very process they are intended to measure. To assess autophagy in human cells without compromising or interfering with the pathway, experiments were conducted during development of embodiments herein utilizing CRISPR/Cas9 genome editing (Refs. 29-30; herein incorporated by reference in their entireties) to insert the Dendra2 open reading frame into the MAP1LC3B locus (encoding LC3) of HEK cells (FIG. 2a). A mutated, nickase version of Cas9 (Cas9n) was used that is incapable of making double-stranded DNA breaks, thereby minimizing the risk of non-homologous end joining and unwanted insertions or deletions (Refs. 29, 35; herein incorporated by reference in their entireties). Two separate single guide RNAs (sgRNAs) were designed that recognize sequences just upstream and downstream of the MAP1LC3B start codon, and a homology directed repair (HDR) vector encoding the Dendra2 open reading frame flanked by 400 bp of homologous sequence surrounding the MAP1LC3B start codon (FIG. 2a). Following expression of the sgRNAs, Cas9n and the HDR in HEK cells, colonies were selected based upon green fluorescence and passaged to homogeneity (FIG. 2b). The insertion site was confirmed by DNA sequencing, PCR, and immunocytochemistry using antibodies that recognize LC3. Providing further validation of the insertion, transfection with siRNA directed against the MAP1LC3B locus elicited a significant reduction in Dendra2-LC3 protein levels as measured by western blotting and native GFP fluorescence (FIG. 2c, d). In untreated cells, Dendra2-LC3 fluorescence appears diffuse, as expected (FIG. 3a). […] Second, autophagy induction in these cells is accompanied not only by the formation of puncta, but also by relative decreases in diffuse Dendra2-LC3 fluorescence, as indicated by the model in FIG. 1.
# For these studies the potent mTOR inhibitor torin1 (Ref. 36; herein incorporated by reference in its entirety) was selected as a positive control for autophagy induction, and the vacuolar ATPase inhibitor bafilomycin-A1 (Ref. 37; herein incorporated by reference in its entirety) as a positive control for autophagy inhibition. In each case, DMSO served as a vehicle (negative) control. Dendra2-LC3 was photoconverted immediately prior to drug application, and the fluorescence intensity in the green (GFP) and red (RFP) channels was measured at regular intervals for 15 h.
# The Z′ value for the effect of torin1 on the normalized GFP intensity, calculated as a ratio of GFP intensity at 15 h to that at 0 h (T15/T0), was 0.63 when the assay was conducted in a 96-well format in our laboratory, and 0.56 when conducted in a 384-well format at the Center for Chemical Genomics (CCG, FIG. 3e), indicative of a robust screening platform (Ref. 38; herein incorporated by reference in its entirety). […] The false negative rate was near zero, ensuring a highly sensitive assay.
# (§1) The possibility that cell death and toxicity mimics the reduction in GFP intensity that would otherwise denote autophagy induction was also addressed. To avoid confounding from toxicity, the area occupied by cells in each image is calculated using ImageJ software and used as a proxy for cell number; since all wells received the same number of cells, >25% reductions in the area occupied by cells at the end of the experiment indicates toxicity. The formation of Dendra2-LC3 puncta in each condition is scored simultaneously using the ‘analyze particles’ function in ImageJ. […]
# [2] = system: ATG5-deficient Dendra2-LC3 HEK cells; experiment: Autophagic flux in Dendra2-LC3 HEK cells with ATG5 siRNA knockdown; type: cell-based, human; conditions: 20 nM ATG5 siRNA two days prior to imaging, red and green channels
# Procedure: FIG. 6, panels a-c. Evaluation of autophagy-modifying compounds in ATG5-deficient cells. […] IB, immunoblot.
# FIGS. 8A-E. Time dependent decay of Dendra2-LC3 as an assay of autophagic flux. (FIG. 8A) Dendra2-LC3 reporter cells were imaged prior to photoconversion to measure background TRITC intensity. Immediately following photoconversion with a 5 second pulse of […] light, cells were treated with DMSO, 1 uM Torin1, or 10 nM Bafilomycin-A1 and then were subsequently imaged at the indicated time points. Images are psuedocolored to better highlight intensity differences. (FIGS. 8B-E) Time dependent changes in photoconverted Dendra2-LC3 fluorescence in the TRITC (FIGS. 8B, D) and GFP (FIGS. 8C, E) channels. Gray boxes represent the pre and post-photoconversion time points. […]
# as §1
compound,measurement,setting,value
"CO/C1=C\C(C)=C\[C@@H](C)[C@@H](O)[C@@H](C)C/C(C)=C/C=C/[C@H](OC)[C@@H]([C@@H](C)[C@@H](O)[C@H](C)[C@@]2(O)C[C@@H](O)[C@H](C)[C@@H](C(C)C)O2)OC1=O [Bafilomycin-A1, bafilomycin-A1]",Effect on torin1-elicited reduction in GFP intensity,[1]; co-treatment with torin1,fully blocked
"CCC(=O)N1CCN(c2ccc(-n3c(=O)ccc4cnc5ccc(-c6cnc7ccccc7c6)cc5c43)cc2C(F)(F)F)CC1 [Torin1, torin1]",Formation of Dendra2-LC3 (LC3-positive) puncta,"[1]; FPZ 0.5 μM, torin1 1 μM",elicits the formation of LC3-positive puncta
same,GFP intensity of native Dendra2-LC3,"[1]; FPZ 0.5 μM, torin1 1 μM",return is prevented
same,GFP intensity of native Dendra2-LC3,"[1]; FPZ 0.5 μM, torin1 1 μM, listed as torin1",highly significant and durable reduction
same,GFP intensity of native Dendra2-LC3,"[1]; FPZ 0.5 μM, torin1 1 μM, listed as torin-1",reduces the steady-state GFP intensity
same,Rank among autophagy inducers in phase I,[1]; Prestwick and Enzo collections,rank among the most potent inducers
same,Effect of ATG5 knockdown on drug-induced autophagic flux,[2],attenuates the effects
same,Effect of ATG5 knockdown on drug-induced autophagic flux,[2]; listed as torin1,attenuates the ability of torin1 to induce autophagic flux; also recorded: mitigated the autophagy-inducing effects
